What was measured:
Candida albicans [1] = assay: Antifungal activity against Candida albicans SC5314 cultured in YNB media after 24 hrs by broth microdilution method; assay type: functional; settings: SC5314, 24 h
Candida albicans [2] = assay: Antifungal activity against Candida albicans SC5314 cultured in RPMI 1640 media after 24 hrs by broth microdilution method; assay type: functional; settings: SC5314, 24 h
[3] = Inhibition of Candida albicans AHAS catalytic subunit using pyruvate as substrate measured after 30 mins by colorimetric method

MIC (Candida albicans [1]) | MIC (Candida albicans [2]) | Structure (SMILES) | Ki [3] | pKi [3]
> 100 mg/L | > 100 mg/L | CCCOC(=O)c1ccccc1OS(=O)(=O)[N-]C(=O)Nc1nc(I)cc(OC)n1.[Na+] | 0.862 µM | 6.06
> 100 mg/L | > 100 mg/L | CCCOC(=O)c1ccccc1OS(=O)(=O)[N-]C(=O)Nc1nc(Cl)cc(OC)n1.[Na+] | 0.235 µM | 6.62
> 100 mg/L | > 100 mg/L | COc1cc(Br)nc(NC(=O)[N-]S(=O)(=O)Oc2ccccc2C(=O)OCCI)n1.[Na+] | 0.98 µM | 6.01
80 mg/L | > 100 mg/L | COc1cc(C)nc(NC(=O)[N-]S(=O)(=O)Oc2ccccc2C(=O)OC(C)C)n1.[Na+] | 0.268 µM | –
> 100 mg/L | > 100 mg/L | CCOC(=O)c1cccc(OS(=O)(=O)[N-]C(=O)Nc2nc(C)cc(C)n2)c1.[Na+] | 36.8 µM | 4.44
> 100 mg/L | > 100 mg/L | COC(=O)c1ccccc1OS(=O)(=O)[N-]C(=O)Nc1nc(C)cc(Cl)n1.[Na+] | 0.0855 µM | 7.06
> 100 mg/L | > 100 mg/L | Cc1cc(Cl)nc(NC(=O)[N-]S(=O)(=O)Oc2ccccc2C(=O)OC(C)C)n1.[Na+] | 22.9 µM | 4.64
10 mg/L | 100 mg/L | CCOC(=O)c1ccccc1OS(=O)(=O)[N-]C(=O)Nc1nc(I)cc(OC)n1.[Na+] | 0.0115 µM | 7.91
> 100 mg/L | > 100 mg/L | Cc1cc(Cl)nc(NC(=O)[N-]S(=O)(=O)Oc2ccccc2C(=O)OCCI)n1.[Na+] | 2.33 µM | 5.64
> 100 mg/L | > 100 mg/L | COc1cc(Cl)nc(NC(=O)[N-]S(=O)(=O)Oc2ccccc2C(=O)OCCI)n1.[Na+] | 0.547 µM | 6.26
> 100 mg/L | > 100 mg/L | Cc1cc(C)nc(NC(=O)[N-]S(=O)(=O)Oc2ccccc2C(=O)OCCCl)n1.[Na+] | 3.37 µM | 5.48
> 100 mg/L | > 100 mg/L | COc1cc(Cl)nc(NC(=O)[N-]S(=O)(=O)Oc2ccccc2C(=O)OC(C)C)n1.[Na+] | 4.56 µM | 5.46
> 100 mg/L | > 100 mg/L | Cc1cc(C)nc(NC(=O)[N-]S(=O)(=O)Oc2ccccc2C(=O)OC(C)C)n1.[Na+] | 9.84 µM | 5
> 100 mg/L | > 100 mg/L | CCCOC(=O)c1ccccc1OS(=O)(=O)[N-]C(=O)Nc1nc(C)cc(OC)n1.[Na+] | 1.49 µM | –
10 mg/L | 25 mg/L | COc1cc(C)nc(NC(=O)[N-]S(=O)(=O)Oc2ccccc2OCCCl)n1.[Na+] | 0.078 µM | 7.1
> 100 mg/L | > 100 mg/L | COc1cc(Br)nc(NC(=O)[N-]S(=O)(=O)Oc2ccccc2C(=O)OCCCl)n1.[Na+] | 0.379 µM | 6.41
> 100 mg/L | > 100 mg/L | CCCOC(=O)c1ccccc1OS(=O)(=O)[N-]C(=O)Nc1nc(C)cc(Cl)n1.[Na+] | 35.5 µM | –
> 100 mg/L | > 100 mg/L | COc1cc(Cl)nc(NC(=O)[N-]S(=O)(=O)Oc2ccccc2C(=O)OCC(F)(F)F)n1.[Na+] | 0.265 µM | 6.57
> 100 mg/L | > 100 mg/L | Cc1cc(C)nc(NC(=O)[N-]S(=O)(=O)Oc2ccccc2OCCCl)n1.[Na+] | 0.822 µM | 6.08
> 100 mg/L | > 100 mg/L | Cc1cc(Cl)nc(NC(=O)[N-]S(=O)(=O)Oc2ccc([N+](=O)[O-])cc2)n1.[Na+] | > 50 µM | –
> 100 mg/L | > 100 mg/L | COc1cc(Cl)nc(NC(=O)[N-]S(=O)(=O)Oc2ccccc2OCCCl)n1.[Na+] | 0.087 µM | 7.06
40 mg/L | > 100 mg/L | COc1cc(I)nc(NC(=O)[N-]S(=O)(=O)Oc2ccccc2[N+](=O)[O-])n1.[Na+] | 0.523 µM | 6.28
10 mg/L | 100 mg/L | COc1cc(I)nc(NC(=O)[N-]S(=O)(=O)Oc2ccccc2OCCCl)n1.[Na+] | 0.068 µM | 7.16
10 mg/L | > 100 mg/L | COc1cc(C)nc(NC(=O)[N-]S(=O)(=O)Oc2ccccc2OCCI)n1.[Na+] | 0.091 µM | 7.04
> 100 mg/L | > 100 mg/L | CCOC(=O)c1ccccc1OS(=O)(=O)[N-]C(=O)Nc1nc(Br)cc(OC)n1.[Na+] | 0.0108 µM | 7.96
> 100 mg/L | > 100 mg/L | COc1cc(Cl)nc(NC(=O)[N-]S(=O)(=O)Oc2ccc([N+](=O)[O-])cc2)n1.[Na+] | 28.1 µM | 4.55
> 100 mg/L | > 100 mg/L | COc1cc(Cl)nc(NC(=O)[N-]S(=O)(=O)Oc2ccccc2[N+](=O)[O-])n1.[Na+] | 0.265 µM | 6.58
20 mg/L | > 100 mg/L | COc1cc(OC)nc(NC(=O)[N-]S(=O)(=O)Oc2ccccc2C(=O)OC(C)C)n1.[Na+] | 0.405 µM | 6.4

MIC (Candida albicans [1]) | MIC (Candida albicans [2]) | Structure (SMILES) | Ki [3] | pKi [3]
> 100 mg/L | > 100 mg/L | CCOC(=O)c1cccc(OS(=O)(=O)[N-]C(=O)Nc2nc(C)cc(OC)n2)c1.[Na+] | 1.64 µM | 5.78
> 100 mg/L | > 100 mg/L | COC(=O)c1ccccc1OS(=O)(=O)[N-]C(=O)Nc1nc(Br)cc(OC)n1.[Na+] | 0.643 µM | 6.28
> 100 mg/L | > 100 mg/L | CCOC(=O)c1ccccc1OS(=O)(=O)[N-]C(=O)Nc1nc(C)cc(C)n1.[Na+] | 0.75 µM | 6.13
> 100 mg/L | > 100 mg/L | COc1cc(Br)nc(NC(=O)[N-]S(=O)(=O)Oc2ccccc2C(=O)OC(C)C)n1.[Na+] | 1.51 µM | 5.82
> 100 mg/L | > 100 mg/L | CCCOC(=O)c1ccccc1OS(=O)(=O)[N-]C(=O)Nc1nc(OC)cc(OC)n1.[Na+] | 0.26 µM | 6.59
> 100 mg/L | > 100 mg/L | COc1cc(OC)nc(NC(=O)[N-]S(=O)(=O)Oc2ccccc2C(=O)Oc2ccccc2)n1.[Na+] | 5.86 µM | 5.23
20 mg/L | > 100 mg/L | COc1cc(I)nc(NC(=O)[N-]S(=O)(=O)Oc2ccccc2OCCI)n1.[Na+] | 0.637 µM | 6.18
20 mg/L | > 100 mg/L | COc1cc(C)nc(NC(=O)[N-]S(=O)(=O)Oc2ccccc2C(=O)OCC(F)(F)F)n1.[Na+] | 0.31 µM | 6.51
> 100 mg/L | > 100 mg/L | Cc1cc(Cl)nc(NC(=O)[N-]S(=O)(=O)Oc2ccccc2C(=O)Oc2ccccc2)n1.[Na+] | > 50 µM | –
> 100 mg/L | > 100 mg/L | COc1cc(Cl)nc(NC(=O)[N-]S(=O)(=O)Oc2ccccc2OCCI)n1.[Na+] | 0.583 µM | 6.23
> 100 mg/L | > 100 mg/L | CCOC(=O)c1ccc(OS(=O)(=O)[N-]C(=O)Nc2nc(OC)cc(OC)n2)cc1.[Na+] | > 50 µM | –
> 100 mg/L | > 100 mg/L | COc1cc(I)nc(NC(=O)[N-]S(=O)(=O)Oc2ccccc2C(=O)OCCCl)n1.[Na+] | 0.74 µM | 6.13
> 100 mg/L | > 100 mg/L | COc1cc(Cl)nc(NC(=O)[N-]S(=O)(=O)Oc2ccccc2C(=O)Oc2ccccc2)n1.[Na+] | 25.4 µM | 4.58
> 100 mg/L | > 100 mg/L | CCOC(=O)c1ccc(OS(=O)(=O)[N-]C(=O)Nc2nc(C)cc(Cl)n2)cc1.[Na+] | > 50 µM | –
> 100 mg/L | > 100 mg/L | COc1cc(C)nc(NC(=O)[N-]S(=O)(=O)Oc2ccccc2C(=O)OCCI)n1.[Na+] | 0.61 µM | 6.21
> 100 mg/L | > 100 mg/L | COc1cc(Br)nc(NC(=O)[N-]S(=O)(=O)Oc2ccccc2OCCI)n1.[Na+] | 0.478 µM | 6.33
> 100 mg/L | > 100 mg/L | COC(=O)c1ccccc1OS(=O)(=O)[N-]C(=O)Nc1nc(Cl)cc(OC)n1.[Na+] | 0.055 µM | 7.26
> 100 mg/L | > 100 mg/L | CCCOC(=O)c1ccccc1OS(=O)(=O)[N-]C(=O)Nc1nc(C)cc(C)n1.[Na+] | 2.69 µM | 5.57
> 100 mg/L | > 100 mg/L | CCCOC(=O)c1ccccc1OS(=O)(=O)[N-]C(=O)Nc1nc(Br)cc(OC)n1.[Na+] | 0.758 µM | 6.16
10 mg/L | 25 mg/L | CCOC(=O)c1ccccc1OS(=O)(=O)[N-]C(=O)Nc1nc(C)cc(OC)n1.[Na+] | 0.0071 µM | 8.16
> 100 mg/L | > 100 mg/L | Cc1cc(C)nc(NC(=O)[N-]S(=O)(=O)Oc2ccccc2C(=O)Oc2ccccc2)n1.[Na+] | 25.7 µM | 4.6
40 mg/L | > 100 mg/L | CCOC(=O)c1ccccc1OS(=O)(=O)[N-]C(=O)Nc1nc(Cl)cc(OC)n1.[Na+] | 0.0075 µM | 8.12
40 mg/L | > 100 mg/L | Cc1cc(Cl)nc(NC(=O)[N-]S(=O)(=O)Oc2ccccc2[N+](=O)[O-])n1.[Na+] | 0.103 µM | 6.99
> 100 mg/L | > 100 mg/L | CCOC(=O)c1cccc(OS(=O)(=O)[N-]C(=O)Nc2nc(C)cc(Cl)n2)c1.[Na+] | > 50 µM | –
> 100 mg/L | > 100 mg/L | CCOC(=O)c1ccc(OS(=O)(=O)[N-]C(=O)Nc2nc(Cl)cc(OC)n2)cc1.[Na+] | 15.4 µM | 4.81
> 100 mg/L | > 100 mg/L | Cc1cc(C)nc(NC(=O)[N-]S(=O)(=O)Oc2ccccc2C(=O)OCCI)n1.[Na+] | 15.1 µM | 4.82
– | – | COC(=O)c1ccccc1S(=O)(=O)NC(=O)Nc1nccc(C)n1 [MONOSULFURON ESTER] | 16.8 µM | –

— ChEMBL document CHEMBL4382231, “Chemical preparation, biological evaluation and 3D-QSAR of ethoxysulfuron derivatives as novel antifungal agents targeting acetohydroxyacid synthase” (Eur J Med Chem, 2019)
